Data reported in patent US20080194606A1, “Pyrazolyl-Amino-Substituted Pyrimidines and Their Use in the Treatment of Cancer” (ASTRAZENECA, priority 2005, published 2008).

Molecular target: T1, human Trk A kinase (Homo sapiens, UniProt P04629)
T1 construct: HIS; made in house; host or cells: SF9 insect cells
Test: Trk A Assay (Alphascreen kinase assay)
Type: biochemical
Conditions: 70 μM ATP, 20 minutes, room temperature, read-out: IC50 (Trk inhibitory activity)
Method: Trk A kinase activity was measured for its ability to phosphorylate synthetic tyrosine residues within a generic polypeptide substrate using an Amplified Luminescent Proximity Assay (Alphascreen) technology (PerkinElmer, 549 Albany Street, Boston, Mass.).
To measure Trk A kinase activity, the intracellular domain of a HIS-tagged human Trk A kinase (amino acids 442-796 of Trk A, Swiss-Prot Primary Accession Number P04629) was expressed in SF9 cells and purified using standard nickel column chromatography. After incubation of the kinase with a biotinylated substrate and adenosine triphosphate (ATP) for 20 minutes at room temperature, the kinase reaction was stopped by the addition of 30 mM ethylenediaminetetraacetic acid (EDTA). The reaction was performed in 384 well microtitre plates and the reaction products were detected with the addition of strepavidin coated Donor Beads and phosphotyrosine-specific antibodies coated Acceptor Beads using the EnVision Multilabel Plate Reader after an overnight incubation at room temperature.

T1 sequence (P04629 442-796): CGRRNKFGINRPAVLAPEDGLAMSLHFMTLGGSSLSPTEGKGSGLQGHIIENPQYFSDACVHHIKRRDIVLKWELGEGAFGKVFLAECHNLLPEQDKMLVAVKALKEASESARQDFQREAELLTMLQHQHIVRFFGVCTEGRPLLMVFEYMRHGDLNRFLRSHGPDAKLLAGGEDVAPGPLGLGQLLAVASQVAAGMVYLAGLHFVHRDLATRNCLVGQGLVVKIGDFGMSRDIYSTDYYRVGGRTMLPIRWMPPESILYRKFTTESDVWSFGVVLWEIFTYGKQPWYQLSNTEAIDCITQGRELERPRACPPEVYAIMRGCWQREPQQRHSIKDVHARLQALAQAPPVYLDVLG

| IC50 | Compound |
| --- | --- |
| 36 nM | C[C@H](Nc1nc(Nc2cc(C3CC3)[nH]n2)ncc1C#N)c1ccc(F)cc1 [Example 4, 2-[(5-Cyclopropyl-1H-pyrazol-3-yl)amino]-4-{[(1S)-1-(4-fluorophenyl)ethyl]amino}pyrimidine-5-carbonitrile] |
| 106 nM | Cc1cnc(Nc2cc(C3CC3)[nH]n2)nc1N[C@@H](CO)c1ccc(F)cc1 [Example 5, (2R)-2-({2-[(5-Cyclopropyl-1H-pyrazol-3-yl)amino]-5-methylpyrimidin-4-yl}amino)-2-(4-fluorophenyl)ethanol] |
| 3940 nM | Cc1cc(Nc2ncc(Cl)c(N[C@@H](CO)c3ccc(F)cc3)n2)n[nH]1 [Example 7, (2R)-2-({5-Chloro-2-[(5-methyl-1H-pyrazol-3-yl)amino]pyrimidin-4-yl}amino)-2-(4-fluorophenyl)ethanol] |
